ChEMBL document CHEMBL1148116, “Thorectandrols C, D, and E, new sesterterpenes from the marine sponge Thorectandra sp” (J Nat Prod, 2002)
Values after ≈ are worked out from the molar mass of the structure shown. Active and inactive are the calls of the source. The calls are words filed in the database; no cut-off is given here.

Assays:
Assay type in all cases: functional, cell-based
MCF7 [1] = assay: Cytotoxicity against human MCF7 cells at 100 ug/mL
SNB-19 [2] = assay: Cytotoxicity against human SNB19 cells at 100 ug/mL
COLO 205 [3] = assay: Cytotoxicity against human COLO205 cells at 100 ug/mL
KM12 [4] = assay: Cytotoxicity against human KM12 cells at 100 ug/mL
MOLT-4 [5] = assay: Cytotoxicity against human MOLT4 cells at 100 ug/mL
NCI-H460 [6] = assay: Cytotoxicity against human H460 cells at 100 ug/mL
A549 [7] = assay: Cytotoxicity against human A549 cells at 100 ug/mL
LOX IMVI [8] = assay: Cytotoxicity against human LOXIMVI cells at 100 ug/mL
Malme-3M [9] = assay: Cytotoxicity against human MALME-3M cells at 100 ug/mL
OVCAR-3 [10] = assay: Cytotoxicity against human OVCAR-3 cells at 100 ug/mL
IGROV-1 [11] = assay: Cytotoxicity against human IGROV1 cells at 100 ug/mL
786-0 = assay: Cytotoxicity against human 786-O cells at 100 ug/mL
SNB-19 [12] = assay: Cytotoxicity against human SNB19 cells
COLO 205 [13] = assay: Cytotoxicity against human COLO205 cells
KM12 [14] = assay: Cytotoxicity against human KM12 cells
MOLT-4 [15] = assay: Cytotoxicity against human MOLT4 cells
NCI-H460 [16] = assay: Cytotoxicity against human H460 cells
A549 [17] = assay: Cytotoxicity against human A549 cells
LOX IMVI [18] = assay: Cytotoxicity against human LOXIMVI cells
Malme-3M [19] = assay: Cytotoxicity against human MALME-3M cells
OVCAR-3 [20] = assay: Cytotoxicity against human OVCAR-3 cells
IGROV-1 [21] = assay: Cytotoxicity against human IGROV1 cells
[22] = Cytotoxicity against human 786-O cells; conditions: 786-0
MCF7 [23] = assay: Cytotoxicity against human MCF7 cells
[24] = Homo sapiens, MCF7, read-out: IC50

Structure (SMILES) | Activity (MCF7 [1]) | Activity (SNB-19 [2]) | Activity (COLO 205 [3]) | Activity (KM12 [4]) | Activity (MOLT-4 [5]) | Activity (NCI-H460 [6]) | Activity (A549 [7]) | Activity (LOX IMVI [8]) | IC50 (SNB-19 [12]) [µg/mL] | IC50 (COLO 205 [13]) [µg/mL] | IC50 (KM12 [14]) [µg/mL] | IC50 (MOLT-4 [15]) [µg/mL] | IC50 (NCI-H460 [16]) [µg/mL] | IC50 (A549 [17]) [µg/mL] | IC50 (LOX IMVI [18]) [µg/mL] | IC50 (Malme-3M [19]) [µg/mL] | IC50 (OVCAR-3 [20]) [µg/mL] | IC50 (IGROV-1 [21]) [µg/mL] | IC50 [22] [µg/mL] | IC50 (MCF7 [23]; [24]) [µg/mL] | further results
CC(C)=CC1C/C(=C\CC/C(C)=C/CC/C(C)=C/CCC2=CC(=O)OC2)C(=O)O1 (stereo not given) | inactive | inactive | inactive | inactive | inactive | inactive | inactive | inactive |  |  |  |  |  |  |  |  |  |  |  |  | Activity (Malme-3M [9]): inactive; Activity (OVCAR-3 [10]): inactive; Activity (IGROV-1 [11]): inactive; Activity (786-0): inactive
C=C1CCC[C@H]2[C@](C)(CC/C(C)=C/C[C@H]3OC(=O)C=C3CO)[C@@H](C)CC[C@]12C [THORECTANDROL A] |  |  |  |  |  |  |  |  | 40 (≈ 103 µM) | 37 (≈ 95.7 µM) | 40 (≈ 103 µM) | 32 (≈ 82.8 µM) | 35 (≈ 90.5 µM) | 35 (≈ 90.5 µM) | 35 (≈ 90.5 µM) | 40 (≈ 103 µM) | 35 (≈ 90.5 µM) | 31 (≈ 80.2 µM) | 30 (≈ 77.6 µM) | 40 (≈ 103 µM) | 
C=C1CCC[C@H]2[C@](C)(CC/C(C)=C/C=C/C3=CC(=O)OC3O)[C@@H](C)CC[C@]12C (stereo not given in full) [PALAUOLIDE] |  |  |  |  |  |  |  |  | 52.1 (≈ 135 µM) | 23.6 (≈ 61.4 µM) | 14.4 (≈ 37.4 µM) | 43.5 (≈ 113 µM) | 10.1 (≈ 26.3 µM) | 30 (≈ 78 µM) | 51.2 (≈ 133 µM) | 37 (≈ 96.2 µM) | 30 (≈ 78 µM) | 7.7 (≈ 20 µM) | 53 (≈ 138 µM) | > 100 | 
C=C1CCC[C@H]2[C@@](CC/C(C)=C/C[C@H]3OC(=O)CC3CO)(COC(C)=O)[C@@H](C)CC[C@]12C (stereo not given in full) [THORECTANDROL B] |  |  |  |  |  |  |  |  | 35 (≈ 78.4 µM) | 23.6 (≈ 52.8 µM) | 94 (≈ 210 µM) | 19 (≈ 42.5 µM) | 96 (≈ 215 µM) | 35 (≈ 78.4 µM) | 100 (≈ 224 µM) | 30 (≈ 67.2 µM) | 70 (≈ 157 µM) | > 100 | 35 (≈ 78.4 µM) | 30 (≈ 67.2 µM) | 
CC(C)=CC1C/C(=C/CC/C(C)=C/CC/C(C)=C/C[C@@H](O)C2=CC(=O)OC2)C(=O)O1 (stereo not given in full) | inactive | inactive | inactive | inactive | inactive | inactive | inactive | inactive |  |  |  |  |  |  |  |  |  |  |  |  | Activity (Malme-3M [9]): inactive; Activity (OVCAR-3 [10]): inactive; Activity (IGROV-1 [11]): inactive; Activity (786-0): inactive
C=C1CCC[C@H]2[C@](C)(CC/C(C)=C/C[C@@H](O)C3=CC(=O)OC3)[C@@H](C)[C@H](O)C[C@]12C | inactive | inactive | inactive | inactive | inactive | inactive | inactive | inactive |  |  |  |  |  |  |  |  |  |  |  |  | Activity (Malme-3M [9]): inactive; Activity (OVCAR-3 [10]): inactive; Activity (IGROV-1 [11]): inactive; Activity (786-0): inactive
C=C1CCC[C@H]2[C@](C)(CC/C(C)=C/C[C@@H](O)C3=CC(=O)OC3)[C@@H](C)[C@H](OC(C)=O)C[C@]12C [THORECTANDROL C] |  |  |  |  |  |  |  |  |  |  |  |  |  | 30 (≈ 67.5 µM) |  | 30 (≈ 67.5 µM) |  |  | 30 (≈ 67.5 µM) |  | Activity (LOX IMVI [18]): inactive; Activity (OVCAR-3 [20]): inactive; IC50 (MCF7 [23]; mcf7): Not Active
C=C1CCC[C@@H]2[C@@](C)(CC/C(C)=C/C[C@@H](O)C3=CC(=O)OC3O)[C@@H](C)CC[C@@]12C (stereo not given in full) [PALAUOLOL] |  |  |  |  |  |  |  |  | 2.1 (≈ 5.22 µM) | 1.1 (≈ 2.73 µM) | 1.8 (≈ 4.47 µM) | 0.6 (≈ 1.49 µM) | 1.3 (≈ 3.23 µM) | > 100 | 2.4 (≈ 5.96 µM) | 0.5 (≈ 1.24 µM) | 2.2 (≈ 5.46 µM) | 1.5 (≈ 3.73 µM) | 1.4 (≈ 3.48 µM) | 7 (≈ 17.4 µM) | 
